Here are results for 1 compound from ChEMBL document CHEMBL3286339, “Synthesis and in vivo SAR study of indolin-2-one-based multi-targeted inhibitors as potential anticancer agents” (Eur J Med Chem, 2014).

Data set [1] has as its target Serine/threonine-protein kinase Chk1 (Homo sapiens) (UniProt O14757). In words: Inhibition of CHK1 (unknown origin) at 1 uM relative to control.
In data set [2] the test system is Mus musculus. In words: Toxicity in BALB/c nude mouse xenografted with human NCI-H460 cells assessed as hematuria at 40 mg/kg/day administered qd. Type of data set: organism-based. As to conditions: in vivo. On the technique in general: A xenograft is tissue or cells of one species grown in another, often human tumour cells in immunodeficient mice.
Data set [3] relates to Mus musculus. In words: Toxicity in BALB/c nude mouse xenografted with human NCI-H460 cells assessed as bloody stool at 40 mg/kg/day administered qd. The data set is classed as organism-based. As to conditions: in vivo.
For data set [4], the target named is Vascular endothelial growth factor receptor 3 (Homo sapiens, UniProt P35916). As to conditions: 1 uM.
Vascular endothelial growth factor receptor 3, sequence (P35916 whole entry): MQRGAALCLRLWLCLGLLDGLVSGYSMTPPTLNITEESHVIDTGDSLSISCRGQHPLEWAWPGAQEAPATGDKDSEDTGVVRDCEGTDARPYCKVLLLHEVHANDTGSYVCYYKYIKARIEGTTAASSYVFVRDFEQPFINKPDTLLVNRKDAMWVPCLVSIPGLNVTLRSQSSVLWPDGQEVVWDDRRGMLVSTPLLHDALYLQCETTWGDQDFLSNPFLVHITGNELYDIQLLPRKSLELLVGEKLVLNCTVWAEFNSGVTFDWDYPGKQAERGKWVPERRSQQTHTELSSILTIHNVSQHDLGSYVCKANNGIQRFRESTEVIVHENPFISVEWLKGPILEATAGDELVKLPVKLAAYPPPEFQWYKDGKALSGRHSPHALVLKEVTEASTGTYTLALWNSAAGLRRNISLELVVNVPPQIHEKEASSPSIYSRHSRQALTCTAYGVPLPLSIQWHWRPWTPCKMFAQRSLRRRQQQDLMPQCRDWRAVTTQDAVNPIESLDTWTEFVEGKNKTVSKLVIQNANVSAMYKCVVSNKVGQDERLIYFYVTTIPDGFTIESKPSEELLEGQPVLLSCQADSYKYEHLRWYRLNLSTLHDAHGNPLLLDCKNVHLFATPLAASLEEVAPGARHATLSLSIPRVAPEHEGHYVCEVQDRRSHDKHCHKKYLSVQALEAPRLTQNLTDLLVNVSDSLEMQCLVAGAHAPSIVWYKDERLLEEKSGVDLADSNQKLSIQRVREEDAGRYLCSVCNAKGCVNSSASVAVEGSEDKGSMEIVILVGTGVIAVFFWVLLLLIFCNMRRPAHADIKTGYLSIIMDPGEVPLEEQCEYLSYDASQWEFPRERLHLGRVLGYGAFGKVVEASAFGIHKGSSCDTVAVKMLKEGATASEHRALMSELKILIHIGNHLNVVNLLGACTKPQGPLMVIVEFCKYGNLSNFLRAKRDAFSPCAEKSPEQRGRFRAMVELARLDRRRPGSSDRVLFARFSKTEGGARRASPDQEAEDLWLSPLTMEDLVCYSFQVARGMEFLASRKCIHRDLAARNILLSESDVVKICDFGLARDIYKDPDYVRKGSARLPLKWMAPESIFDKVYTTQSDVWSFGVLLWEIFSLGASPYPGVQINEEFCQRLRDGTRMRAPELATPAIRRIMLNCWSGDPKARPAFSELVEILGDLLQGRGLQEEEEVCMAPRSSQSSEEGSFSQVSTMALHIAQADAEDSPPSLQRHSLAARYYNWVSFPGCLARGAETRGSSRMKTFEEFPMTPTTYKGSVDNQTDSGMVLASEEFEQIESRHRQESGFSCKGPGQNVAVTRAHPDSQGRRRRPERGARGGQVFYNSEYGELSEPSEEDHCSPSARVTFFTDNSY
Description: Inhibition of VEGFR3 (unknown origin) at 1 uM relative to control
Data set [5] deals with T1, Fibroblast growth factor receptor 3 (Homo sapiens, UniProt P22607). Particulars: 1 uM.
Target sequence in this assay (P22607 23-806 limits assumed): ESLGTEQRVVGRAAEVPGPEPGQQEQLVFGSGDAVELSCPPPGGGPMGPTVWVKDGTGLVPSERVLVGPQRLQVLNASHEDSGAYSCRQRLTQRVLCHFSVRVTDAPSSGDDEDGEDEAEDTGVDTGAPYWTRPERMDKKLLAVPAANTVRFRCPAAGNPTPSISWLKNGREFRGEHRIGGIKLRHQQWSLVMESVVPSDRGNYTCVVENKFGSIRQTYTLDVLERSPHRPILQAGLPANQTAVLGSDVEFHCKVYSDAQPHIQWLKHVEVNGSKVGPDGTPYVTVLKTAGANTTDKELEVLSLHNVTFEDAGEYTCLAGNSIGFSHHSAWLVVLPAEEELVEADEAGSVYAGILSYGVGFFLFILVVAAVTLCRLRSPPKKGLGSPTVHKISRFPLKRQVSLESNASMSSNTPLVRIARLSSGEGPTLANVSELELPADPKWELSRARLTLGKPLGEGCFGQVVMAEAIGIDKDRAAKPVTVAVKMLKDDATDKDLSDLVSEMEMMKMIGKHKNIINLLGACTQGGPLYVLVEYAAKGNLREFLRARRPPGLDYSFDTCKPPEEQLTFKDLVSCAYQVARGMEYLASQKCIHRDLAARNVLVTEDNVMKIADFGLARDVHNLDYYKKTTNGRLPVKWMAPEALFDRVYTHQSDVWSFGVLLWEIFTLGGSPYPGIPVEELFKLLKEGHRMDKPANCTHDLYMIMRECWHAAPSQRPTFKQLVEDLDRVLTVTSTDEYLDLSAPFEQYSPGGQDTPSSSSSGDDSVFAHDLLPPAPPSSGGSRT
Description: Inhibition of FGFR3 (unknown origin) at 1 uM relative to control
In data set [6] the test system is Mus musculus. In words: Toxicity in BALB/c nude mouse xenografted with human NCI-H460 cells assessed as severe weight loss at 40 mg/kg/day administered qd. The data set is classed as organism-based. As to conditions: in vivo.
A further data set deals with HT-29. The data set can be described thus: Antitumor activity against human HT-29 cells xenografted in BALB/c nude mouse assessed as tumor growth inhibition at 80 mg/kg/day administered qd measured up to day 21 relative to control. Further details: scale not given: the % may be the effect or the level left. Type of data set: functional.
The target of data set [7] is Phosphorylase b kinase gamma catalytic chain, liver/testis isoform (Homo sapiens) (UniProt P15735). The data set can be described thus: Inhibition of PHKgamma2 (unknown origin) at 1 uM relative to control.
Phosphorylase b kinase gamma catalytic chain, liver/testis isoform (Homo sapiens), sequence (P15735 whole entry, canonical isoform): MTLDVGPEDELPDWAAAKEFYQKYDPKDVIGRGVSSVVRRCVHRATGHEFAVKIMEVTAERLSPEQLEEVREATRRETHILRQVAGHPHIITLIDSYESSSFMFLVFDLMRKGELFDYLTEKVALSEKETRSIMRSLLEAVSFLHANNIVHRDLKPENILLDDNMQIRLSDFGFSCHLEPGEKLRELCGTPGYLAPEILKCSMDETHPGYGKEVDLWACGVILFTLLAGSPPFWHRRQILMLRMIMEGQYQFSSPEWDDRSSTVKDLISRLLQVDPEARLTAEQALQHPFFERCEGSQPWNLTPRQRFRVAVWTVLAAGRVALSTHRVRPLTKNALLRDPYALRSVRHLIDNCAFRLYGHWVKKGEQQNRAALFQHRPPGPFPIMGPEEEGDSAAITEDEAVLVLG
The target of another data set is Focal adhesion kinase 1 (Homo sapiens, UniProt Q05397). In words: Inhibition of FAK (unknown origin) at 1 uM relative to control.
Focal adhesion kinase 1, sequence (Q05397 2-1052 limits assumed): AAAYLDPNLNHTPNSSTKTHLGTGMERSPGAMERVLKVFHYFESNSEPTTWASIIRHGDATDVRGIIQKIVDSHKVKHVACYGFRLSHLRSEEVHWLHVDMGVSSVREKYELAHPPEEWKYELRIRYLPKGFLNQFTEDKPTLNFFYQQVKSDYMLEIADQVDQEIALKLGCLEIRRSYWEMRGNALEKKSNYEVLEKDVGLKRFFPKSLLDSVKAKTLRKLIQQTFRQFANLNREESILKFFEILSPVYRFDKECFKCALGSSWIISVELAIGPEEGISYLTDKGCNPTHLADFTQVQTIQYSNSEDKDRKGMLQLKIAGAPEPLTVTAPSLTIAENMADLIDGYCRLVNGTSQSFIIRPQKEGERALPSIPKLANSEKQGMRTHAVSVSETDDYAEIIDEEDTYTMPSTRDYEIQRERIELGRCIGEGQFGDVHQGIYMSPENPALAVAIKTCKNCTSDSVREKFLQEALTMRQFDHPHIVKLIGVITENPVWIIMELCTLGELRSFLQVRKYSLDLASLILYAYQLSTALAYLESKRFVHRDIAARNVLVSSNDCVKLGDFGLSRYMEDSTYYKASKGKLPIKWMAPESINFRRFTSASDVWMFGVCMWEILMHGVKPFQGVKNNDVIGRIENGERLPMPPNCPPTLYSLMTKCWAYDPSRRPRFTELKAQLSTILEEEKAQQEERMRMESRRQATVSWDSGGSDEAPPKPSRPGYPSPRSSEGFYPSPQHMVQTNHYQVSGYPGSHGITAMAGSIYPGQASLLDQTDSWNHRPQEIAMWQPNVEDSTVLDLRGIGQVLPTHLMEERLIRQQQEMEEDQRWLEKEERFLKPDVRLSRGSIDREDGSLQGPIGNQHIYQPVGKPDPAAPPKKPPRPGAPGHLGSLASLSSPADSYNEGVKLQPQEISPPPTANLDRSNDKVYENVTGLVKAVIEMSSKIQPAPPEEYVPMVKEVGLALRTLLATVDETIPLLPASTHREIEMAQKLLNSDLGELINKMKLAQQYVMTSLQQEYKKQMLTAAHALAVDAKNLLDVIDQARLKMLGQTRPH
The target of data set [8] is T1, Fibroblast growth factor receptor 3. In words: Binding affinity to FGFR3 (unknown origin).
In data set [9] the target is Protein-tyrosine kinase 2-beta (Homo sapiens, UniProt Q14289). The data set can be described thus: Binding affinity to PYK2 (unknown origin).
Protein-tyrosine kinase 2-beta, sequence (Q14289 whole entry): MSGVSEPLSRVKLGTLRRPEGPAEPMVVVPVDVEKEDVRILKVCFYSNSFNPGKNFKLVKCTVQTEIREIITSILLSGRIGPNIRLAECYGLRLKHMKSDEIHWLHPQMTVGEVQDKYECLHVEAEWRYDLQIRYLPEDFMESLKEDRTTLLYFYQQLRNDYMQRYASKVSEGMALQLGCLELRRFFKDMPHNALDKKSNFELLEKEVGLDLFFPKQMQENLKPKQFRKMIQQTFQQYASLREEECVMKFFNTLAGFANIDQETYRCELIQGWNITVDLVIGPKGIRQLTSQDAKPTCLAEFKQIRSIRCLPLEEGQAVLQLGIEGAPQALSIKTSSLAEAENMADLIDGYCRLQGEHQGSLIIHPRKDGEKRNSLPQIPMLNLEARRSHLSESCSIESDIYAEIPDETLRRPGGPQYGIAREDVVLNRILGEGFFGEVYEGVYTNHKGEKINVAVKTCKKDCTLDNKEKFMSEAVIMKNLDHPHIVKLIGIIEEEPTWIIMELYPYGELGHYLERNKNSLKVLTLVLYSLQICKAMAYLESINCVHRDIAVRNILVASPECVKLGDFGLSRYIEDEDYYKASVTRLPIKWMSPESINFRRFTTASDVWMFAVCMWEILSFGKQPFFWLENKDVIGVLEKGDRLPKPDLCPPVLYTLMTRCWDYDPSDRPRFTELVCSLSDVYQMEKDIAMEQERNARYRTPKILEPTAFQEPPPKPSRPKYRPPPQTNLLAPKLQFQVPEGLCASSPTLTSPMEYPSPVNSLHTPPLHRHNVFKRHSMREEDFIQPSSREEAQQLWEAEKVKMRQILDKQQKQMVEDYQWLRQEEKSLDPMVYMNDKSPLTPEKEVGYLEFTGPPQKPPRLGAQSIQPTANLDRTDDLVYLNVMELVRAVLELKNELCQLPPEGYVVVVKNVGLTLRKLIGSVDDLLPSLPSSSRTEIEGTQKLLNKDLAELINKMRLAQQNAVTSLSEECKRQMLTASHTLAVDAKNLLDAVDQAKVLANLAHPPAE
The next data set relates to TT. In words: Antiproliferative activity against human TT cells pretreated for 72 hrs followed by compound-washout measured after 72 hrs by MTT assay. The data set is classed as functional, cell-based.
Data set [10] has as its target Serine/threonine-protein kinase Chk1 (Homo sapiens, UniProt O14757). In words: Binding affinity to CHK1 (unknown origin).

Serine/threonine-protein kinase Chk1 (Homo sapiens), sequence (O14757 whole entry): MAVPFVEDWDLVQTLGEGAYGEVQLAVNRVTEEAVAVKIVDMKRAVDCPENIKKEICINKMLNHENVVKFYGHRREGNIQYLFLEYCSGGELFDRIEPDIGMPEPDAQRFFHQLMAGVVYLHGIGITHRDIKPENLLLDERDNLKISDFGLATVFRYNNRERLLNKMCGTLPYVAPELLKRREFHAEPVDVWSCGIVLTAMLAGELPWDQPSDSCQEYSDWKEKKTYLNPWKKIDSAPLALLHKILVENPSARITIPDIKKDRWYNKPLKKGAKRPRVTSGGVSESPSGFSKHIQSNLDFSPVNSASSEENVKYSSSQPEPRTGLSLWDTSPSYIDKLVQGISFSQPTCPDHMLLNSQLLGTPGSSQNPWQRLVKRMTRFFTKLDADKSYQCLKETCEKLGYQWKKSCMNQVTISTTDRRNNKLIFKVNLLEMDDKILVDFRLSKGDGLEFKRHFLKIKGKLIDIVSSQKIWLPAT

A word on the inhibition: it is the change of the read-out against control, counted positive when it falls. Usually Ki stands for a dissociation constant, usually derived from enzyme kinetics or from competition with a known ligand. What is called IC50 is the midpoint of a concentration-inhibition curve. For the compound `Cc1[nH]c(/C=C2\C(=O)Nc3ccc(F)cc32)c(C)c1NC(=O)CCN1CCN(C)CC1`, the inhibition in [1] amounted to 76%; in [4] it was 99%; in data set [5], 91%; in [7], 51%; against Focal adhesion kinase 1, 66%. In addition, the Activity result is on record as “Non-toxic” in the data set on Mus musculus [2], “Non-toxic” in the data set with Mus musculus [3], “Non-toxic” in the data set on Mus musculus [6] and 84.7% with HT-29. Besides, the results for the Ki in [8], in data set [9] and in data set [10] were 0.089 µM, 0.34 µM and 0.11 µM, respectively. Moreover, the IC50 with TT is 0.07 µM.
